The numbers were not newly measured in patent US6777002B1, “Process for microencapsulation of water soluble substances” (Debio Recherche Pharmaceutique S.A., priority 1999, dated 2004), which cites them from elsewhere.

For the series the following is noted: in water at 20-25° C.

As to `CCOC(C)=O` [ethyl acetate], the solubility in water is 8.70 % (by weight). Consider `ClCCl` [dichloromethane], for which the solubility in water is 1.32 % (by weight).
